In patent US10669290B2, “Beta-lactamase inhibitors” (priority 2012, dated 2020):
Where two headings read alike, the source gives them in different places.

Tests used:
[1] = target: T1, SHV-5 (Klebsiella pneumoniae, UniProt P0A3M1); assay: β-Lactamase inhibition, SHV-5 (cefotaxime substrate); assay type: biochemical
T1 construct: made in house; host or cells: E. coli BL21 (DE3)
Protocol: (§1) For SHV-5, Kpc-2, p99AmpC and OXA-1 β-lactamases, E. coli BL21 (DE3) bacterial cells carrying expression plasmids (expressed as native untagged proteins) for the individual β-lactamases were grown in 1 L of Superbroth (Teknova Inc. Hollister, Calif.) supplemented with 100 μg/ml kanamycin selection and 1×5052 (0.5% glycerol, 0.05% glucose and 0.2% α-lactose) at 35° C. for 18-20 hours. Cells were harvested by centrifugation (4,000×g, 4° C., 20 min), resuspended in 50 ml of 10 mM HEPES pH 7.5 ( 1/20 of the initial volume). The cells were lysed by sonication (5 pulses of 45 seconds) at 45 W on ice. The lysates were clarified by centrifugation at 10,000×g for 40 minutes at 4° C. Samples were diluted 5-fold in 50 mM sodium acetate pH 5.0, stored overnight at 4° C., after which they were centrifuged at 10,000×g for 30 minutes to clarify, and filtered through 0.45 µm filters. The samples were loaded onto a 5 ml Capto S sepharose cation exchange column (GE Healthcare) pre-equilibrated with 50 mM sodium acetate pH 5.0. […] Active fractions were pooled concentrated, quantitated by BCA protein determination (Thermo Scientific, Rockford, Ill.), dialyzed into PBS and frozen at −80° C. in 20% glycerol until use.
(§2) An equal volume of diluted enzyme stock was added, and the plates were incubated at 37° C. for 15 min. […] Absorbance at 486 nm was immediately monitored for 10 min using a Biotek Powerwave XS2 microplate spectrophotometer using the GEN5 software package (Biotek Instruments, Winooski Vt.). In an analogous fashion, imipenem was used as substrate for Kpc-2 and Cefotaxime was used for SHV-5, while changes in absorbance upon hydrolysis of the β-lactam ring were monitored at 300 nm and 260 nm respectively in UV-transparent 96-well microtiter assay plates. Maximum rates of hydrolysis were compared to those in control wells (without inhibitors), and percentages of enzyme inhibition were calculated for each concentration of inhibitor. […]

[2] = target: T2, KPC-2 (Klebsiella pneumoniae, UniProt Q9F663); assay: β-Lactamase inhibition, KPC-2 (imipenem substrate); assay type: biochemical
T2 construct: made in house; host or cells: E. coli BL21 (DE3)
T2 sequence (Q9F663 25-293 limits assumed): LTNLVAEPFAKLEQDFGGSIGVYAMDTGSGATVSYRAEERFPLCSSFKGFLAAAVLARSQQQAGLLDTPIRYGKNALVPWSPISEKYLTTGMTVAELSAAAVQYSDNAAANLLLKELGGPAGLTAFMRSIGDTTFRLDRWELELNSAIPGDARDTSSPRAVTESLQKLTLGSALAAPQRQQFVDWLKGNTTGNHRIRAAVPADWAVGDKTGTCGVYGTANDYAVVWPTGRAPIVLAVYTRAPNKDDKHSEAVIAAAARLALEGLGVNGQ
Protocol: as §1, §2

[3] = target: T3, VIM-2 (Escherichia coli, UniProt Q5U7L7); assay: β-Lactamase inhibition, VIM-2 (nitrocefin substrate); assay type: biochemical
T3 construct: made in house; host or cells: E. coli BL21 (DE3)
Protocol: as §1, with “use. […]” for “use.”
as §2

[4] = target: T4, p99 AmpC (Enterobacter cloacae, UniProt P05364); assay: β-Lactamase inhibition, p99 AmpC (nitrocefin substrate); assay type: biochemical
T4 construct: made in house; host or cells: E. coli BL21 (DE3)
T4 sequence (P05364 21-381): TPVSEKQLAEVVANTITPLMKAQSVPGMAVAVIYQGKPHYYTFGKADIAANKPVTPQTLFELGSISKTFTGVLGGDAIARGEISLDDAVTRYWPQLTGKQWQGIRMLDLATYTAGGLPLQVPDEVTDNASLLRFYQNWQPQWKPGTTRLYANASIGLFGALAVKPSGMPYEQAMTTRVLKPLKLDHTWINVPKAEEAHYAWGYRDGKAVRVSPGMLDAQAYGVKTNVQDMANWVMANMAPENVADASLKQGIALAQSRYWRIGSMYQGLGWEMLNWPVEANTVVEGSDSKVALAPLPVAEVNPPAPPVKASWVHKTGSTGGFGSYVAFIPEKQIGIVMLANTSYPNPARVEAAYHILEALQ
Protocol: For SHV-5, Kpc-2, p99AmpC and OXA-1 β-lactamases, E. coli BL21 (DE3) bacterial cells carrying expression plasmids (expressed as native untagged proteins) for the individual β-lactamases were grown in 1 L of Superbroth (Teknova Inc. Hollister, Calif.) supplemented with 100 μg/ml kanamycin selection and 1×5052 (0.5% glycerol, 0.05% glucose and 0.2% α-lactose) at 35° C. for 18-20 hours. Cells were harvested by centrifugation (4,000×g, 4° C., 20 min), resuspended in 50 ml of 10 mM HEPES pH 7.5 ( 1/20 of the initial volume). The cells were lysed by sonication (5 pulses of 45 seconds) at 45 W on ice. The lysates were clarified by centrifugation at 10,000×g for 40 minutes at 4° C. Samples were diluted 5-fold in 50 mM sodium acetate pH 5.0, stored overnight at 4° C., after which they were centrifuged at 10,000×g for 30 minutes to clarify, and filtered through 0.45 µm filters. The samples were loaded onto a 5 ml Capto S sepharose cation exchange column (GE Healthcare) pre-equilibrated with 50 mM sodium acetate pH 5.0. The column was washed with 5 column volumes of 50 mM sodium acetate pH 5.0 to wash out unbound protein and a linear gradient of NaCl (0 to 500 mM) was used to elute the protein (over 16 CV) from the column. Fractions were assayed for β-lactamase activity using Centa (Calbiochem, Gibbstown, N.J.) or Nitrocefin (EMD Millipore chemicals, Darmstadt, Germany) as a reporter β-lactamase substrate for activity in the isolated fractions. Active fractions were pooled, concentrated and further purified by gel filtration chromatography on a Superdex 75 prep grade gel filtration column (GE Healthcare, Piscataway, N.J.) pre-equilibrated in 50 mM Hepes pH 7.5, 150 mM NaCl. Active fractions were pooled concentrated, quantitated by BCA protein determination (Thermo Scientific, Rockford, Ill.), dialyzed into PBS and frozen at −80° C. in 20% glycerol until use.
An equal volume of diluted enzyme stock was added, and the plates were incubated at 37° C. for 15 min. Nitrocefin was used as substrate for p99 AmpC, VIM-2 and OXA-1 and dispensed into each well at a final concentration of 100 μM. Absorbance at 486 nm was immediately monitored for 10 min using a Biotek Powerwave XS2 microplate spectrophotometer using the GEN5 software package (Biotek Instruments, Winooski Vt.). In an analogous fashion, imipenem was used as substrate for Kpc-2 and Cefotaxime was used for SHV-5, while changes in absorbance upon hydrolysis of the β-lactam ring were monitored at 300 nm and 260 nm respectively in UV-transparent 96-well microtiter assay plates. Maximum rates of hydrolysis were compared to those in control wells (without inhibitors), and percentages of enzyme inhibition were calculated for each concentration of inhibitor. The concentration of inhibitor needed to reduce the initial rate of hydrolysis of substrate by 50% (IC50) was calculated as the residual activity of β-lactamase at 486 nm using GraFit version 7 kinetics software package (Erithacus Software, Surrey, UK).
Using the methodology described above, examples of the current invention were evaluated for their ability to inhibit β-lactamase enzymes from all four Ambler classifications (A through D). […] NT=Not tested.

[5] = target: T5, OXA-1 (Escherichia coli, UniProt P13661); assay: β-Lactamase inhibition, OXA-1 (nitrocefin substrate); assay type: biochemical
T5 construct: made in house; host or cells: E. coli BL21 (DE3)
T5 sequence (P13661 26-276): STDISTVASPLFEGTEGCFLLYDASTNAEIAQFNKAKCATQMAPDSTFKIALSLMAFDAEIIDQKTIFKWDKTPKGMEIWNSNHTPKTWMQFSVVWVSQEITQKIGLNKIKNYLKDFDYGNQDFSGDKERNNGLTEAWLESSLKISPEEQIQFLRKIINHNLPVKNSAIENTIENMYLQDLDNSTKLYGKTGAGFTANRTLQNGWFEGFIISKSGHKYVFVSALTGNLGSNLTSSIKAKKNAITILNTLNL
Protocol: as §1, §2

[6] = tested on: E. coli ESBL4 CTX-M-15; assay: Broth microdilution MIC, E. coli ESBL4; assay type: cell-based; conditions: fixed ceftazidime 4 μg/mL, CAMHB, 16-20 hours 37° C.; for MIC: Escherichia coli, ESBL4CTXM15, read-out: MIC of exemplary compounds in presence of fixed β-lactams, Fixed CAZ, E. coli ESBL4 CTX-M-15
Method in brief: (§3)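 MIC of the test compound was read by eye after 16-20 h at 37° C, with inoculation following CLSI broth microdilution. The compound ran 32 to 0.25 μg/ml final in 2-fold steps in cation-adjusted Mueller Hinton broth, overlaid with a beta-lactam held static at 4 μg/ml final.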

[7] = tested on: E. cl 144200 p99 AmpC; assay: Broth microdilution MIC, E. cloacae 144200; assay type: cell-based; conditions: fixed ceftazidime 4 μg/mL, CAMHB, 16-20 hours 37° C.; for MIC: Enterobacter cloacae, read-out: MIC of exemplary compounds in presence of fixed β-lactams, Fixed CAZ, E. cl 144200 p99 AmpC
Method in brief: as §3

[8] = tested on: K.P. 156319 KPC-3; assay: Broth microdilution MIC, K. pneumoniae 156319; assay type: cell-based; conditions: fixed meropenem 4 μg/mL, CAMHB, 16-20 hours 37° C.; for MIC: Klebsiella pneumoniae, read-out: MIC of exemplary compounds in presence of fixed β-lactams, Fixed Mero, K.P. 156319 KPC-3
[9] = tested on: P. aerug. Ps296 VIM-2; assay: Broth microdilution MIC, P. aeruginosa Ps296; assay type: cell-based; conditions: fixed meropenem 4 μg/mL, CAMHB, 16-20 hours 37° C.; for MIC: Pseudomonas aeruginosa, read-out: MIC of exemplary compounds in presence of fixed β-lactams, Fixed Mero, P. aerug. Ps296 VIM-2
Method in brief: as §3

[10] = tested on: K.P. A-1797 KPC-2 VIM-4; assay: Broth microdilution MIC, K. pneumoniae A-1797; assay type: cell-based; conditions: fixed meropenem 4 μg/mL, CAMHB, 16-20 hours 37° C.; for MIC: Klebsiella pneumoniae, read-out: MIC of exemplary compounds in presence of fixed β-lactams, Fixed Mero, K.P. A-1797 KPC-2 VIM-4
[11] = tested on: S. aureus MSSA-7 PC-1; assay: Broth microdilution MIC, S. aureus MSSA-7; assay type: cell-based; conditions: Staphylococcus aureus, fixed piperacillin 4 μg/mL, CAMHB, 16-20 hours 37° C., read-out: MIC of exemplary compounds in presence of fixed β-lactams, Fixed Pip, S. aureus MSSA-7 PC-1
[12] = nitrocefin 100 μM, 486 nm, 15 min preincubation 37° C., PBS pH 7.4, read-out: IC50 AmpC (Class C)

T1 sequence (P0A3M1 22-286): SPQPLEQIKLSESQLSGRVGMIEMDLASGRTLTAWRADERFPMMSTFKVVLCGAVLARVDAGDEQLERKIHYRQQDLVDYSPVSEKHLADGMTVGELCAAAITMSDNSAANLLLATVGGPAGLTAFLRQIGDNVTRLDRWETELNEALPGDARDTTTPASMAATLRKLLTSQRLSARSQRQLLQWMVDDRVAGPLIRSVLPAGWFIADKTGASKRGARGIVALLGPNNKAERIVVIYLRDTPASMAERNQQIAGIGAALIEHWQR

Row | SMILES | IC50 [1] | IC50 [2] | IC50 [3] | IC50 [4] | IC50 [5] | MIC of exemplary compounds in presence of fixed β-lactams, Fixed CAZ, E. coli ESBL4 CTX-M-15 [6] | MIC of exemplary compounds in presence of fixed β-lactams, Fixed CAZ, E. cl 144200 p99 AmpC [7] | MIC of exemplary compounds in presence of fixed β-lactams, Fixed Mero, K.P. 156319 KPC-3 [8] | MIC of exemplary compounds in presence of fixed β-lactams, Fixed Mero, P. aerug. Ps296 VIM-2 [9] | MIC of exemplary compounds in presence of fixed β-lactams, Fixed Mero, K.P. A-1797 KPC-2 VIM-4 [10] | IC50 [4, 12] | MIC [6] | MIC [7] | MIC [8] | MIC [9] | MIC [10] | MIC [11]
1 | NC[C@@H]1CC[C@@H](CC(=O)N[C@H]2Cc3cccc(C(=O)O)c3OB2O)C[C@H]1CN (mixture of isomers) [Example 18, (3R)-3-[[2-[(1S,3S,4S)-3,4-bis(aminomethyl)cyclohexyl]acetyl]amino]-2-hydroxy-3,4-dihydro-1,2-benzoxaborinine-8-carboxylic acid and (3R)-3-[[2-[(1R,3R,4R)-3,4-bis(aminomethyl)cyclohexyl]acetyl]amino]-2-hydroxy-3,4-dihydro-1,2-benzoxaborinine-8-carboxylic acid] | < 100 nM | < 100 nM | < 100 nM | < 100 nM | < 100 nM | C (C represents the MIC in the presence of <4 μg/mL of a β-lactamase inhibitor of exemplary compounds) | C (C represents the MIC in the presence of <4 μg/mL of a β-lactamase inhibitor of exemplary compounds) | C (C represents the MIC in the presence of <4 μg/mL of a β-lactamase inhibitor of exemplary compounds) | C (C represents the MIC in the presence of <4 μg/mL of a β-lactamase inhibitor of exemplary compounds) | B (B represents the MIC in the presence of between 8 and 32 μg/mL of a β-lactamase inhibitor of exemplary compounds) | – | – | – | – | – | – | –
2 | N=C(N)N1CCN([C@H]2CC[C@H](CC(=O)N[C@H]3Cc4cccc(C(=O)O)c4OB3O)CC2)CC1 [Example 24, (R)-3-(2-(trans-4-(4-carbamimidoylpiperazin-1-yl)cyclohexyl)acetamido)-2-hydroxy-3,4-dihydro-2H-benzo[e][1,2]oxaborinine-8-carboxylic acid] | – | – | – | – | – | – | – | – | – | – | < 100 nM | < 4 µg/mL | < 4 µg/mL | < 4 µg/mL | 8 to 32 µg/mL | < 4 µg/mL | < 4 µg/mL
3 | NC1CN(C2CCC(CC(=O)N[C@H]3Cc4cccc(C(=O)O)c4OB3O)CC2)C1 (stereo partly drawn) [Example 35, (3R)-3-(2-(4-(3-aminoazetidin-1-yl)cyclohexyl)acetamido)-2-hydroxy-3,4-dihydro-2H-benzo[e][1,2]oxaborinine-8-carboxylic acid] | – | – | – | – | – | – | – | – | – | – | < 100 nM | < 4 µg/mL | < 4 µg/mL | < 4 µg/mL | < 4 µg/mL | 8 to 32 µg/mL | < 4 µg/mL
4 | O=C(CC1CCC(NC2CNC2)CC1)N[C@H]1Cc2cccc(C(=O)O)c2OB1O (stereo partly drawn) [Example 36, (3R)-3-(2-(4-(azetidin-3-ylamino)cyclohexyl)acetamido)-2-hydroxy-3,4-dihydro-2H-benzo[e][1,2]oxaborinine-8-carboxylic acid] | – | – | – | – | – | – | – | – | – | – | < 100 nM | < 4 µg/mL | < 4 µg/mL | < 4 µg/mL | < 4 µg/mL | 8 to 32 µg/mL | < 4 µg/mL
5 | N=C(N)NC1CN(C2CCC(CC(=O)N[C@H]3Cc4cccc(C(=O)O)c4OB3O)CC2)C1 (stereo partly drawn) [Example 41, (3R)-3-(2-(4-(3-guanidinoazetidin-1-yl)cyclohexyl)acetamido)-2-hydroxy-3,4-dihydro-2H-benzo[e][1,2]oxaborinine-8-carboxylic acid] | – | – | – | – | – | – | – | – | – | – | < 100 nM | < 4 µg/mL | < 4 µg/mL | < 4 µg/mL | 8 to 32 µg/mL | < 4 µg/mL | < 4 µg/mL
6 | O=C(CC1CCC(O)CC1)N[C@H]1Cc2cccc(C(=O)O)c2OB1O (stereo partly drawn) [Example 47, (3R)-2-hydroxy-3-(2-(4-hydroxycyclohexyl)acetamido)-3,4-dihydro-2H-benzo[e][1,2]oxaborinine-8-carboxylic acid] | – | – | – | – | – | – | – | – | – | – | < 100 nM | < 4 µg/mL | < 4 µg/mL | < 4 µg/mL | 8 to 32 µg/mL | > 32 µg/mL | < 4 µg/mL
7 | CN(C)CCN[C@H]1CC[C@H](CC(=O)N[C@H]2Cc3cccc(C(=O)O)c3OB2O)CC1 [Example 79, (R)-3-(2-(trans-4-(2-(dimethylamino)ethylamino)cyclohexyl)acetamido)-2-hydroxy-3,4-dihydro-2H-benzo[e][1,2]oxaborinine-8-carboxylic acid] | – | – | – | – | – | – | – | – | – | – | – | < 4 µg/mL | < 4 µg/mL | < 4 µg/mL | < 4 µg/mL | < 4 µg/mL | < 4 µg/mL
